The subject of experiment [1] is HEY A8 CSCs (HEY A8 SP). Briefly: Toxicity / cell viability (CellTiter-Glo) on HEY A8 spheres (CSCs). The following applies: for rank of toxicity among the 14 molecules on HEY A8 CSCs: 5 μM; for rank of toxicity among the 14 molecules on HEY A8 CSCs / cell viability of HEY A8 CSCs (toxicity): 48 h; for IC50: HEY A8 spheres, 48 h incubation, read-out: IC50 Cancer Stem Cell HeyA8 SP; for cell viability of HEY A8 CSCs (toxicity): compound 5 μM; for selectivity towards ovarian CSCs over ovarian cancer cells and normal cells: from IC50 values, FIG. 4 and Table 1. Format: cell-based, human. Here is the method: Aminoxy acids were synthesized by the standard peptide coupling procedures. The CSCs are obtained by spheroids culturing under suspension condition. It is confirmed that these spheres indeed contain significant higher population of cells with CD133 antigenic phenotype, which has been reported can represent ovarian CSCs (FIG. 2). After treatment with compounds for 48 h, the cell viability of CSCs was measured by using CELLTITER-GLO® luminescent reagent. Compound sff-3-85 (“Example 2”) were used at the dose of 10 μM, all the other compounds were used at the concentration of 5 μM. All experiments were performed three times and data is presented as mean±SD.
Cell Cultures Human ovarian carcinoma cell lines HEY A8 and SKOV3 were gifts from Professor Alice Wong's group (The University of Hong Kong). Cells were grown in Dulbecco's Modified Eagle (DMEM) medium supplemented with 10% FBS and 1% penicillin/streptomycin at 37° C. in a humidified atmosphere containing […] CO2. Isolation and culture of spheres were performed in serum-free stem-cell-selective condition as described in literature Ip etl. Oncogene 2014, 5, 9133-9149. Briefly, 1-2 weeks after plating, non-adherent spherical clusters of cells could be observed and were separated from single cells by low speed centrifugation. After 8th to 10th passages, the non-adherent spherical clusters of cells appeared as distinct spheres. Using this selection condition, HEY A8 spheres (HEY A8 SP) or SKOV3 spheres (SKOV3 SP) could be enzymatically dissociated and reformed into spheres within 3 days under stem-cell-selective condition. To allow differentiation, dissociated sphere cells were plated on tissue culture plates in medium (MCDB 105:M199=1:1) supplemented with 10% FBS and 1% PS.
(§1) HEY A8 SP cells (5×10^4) were plated in triplicate in 10 mL serum-free MCDB105 medium in 100-mm Petri dish for 7 days to form spheres. Compound at the final concentration of 5 μM was added. The cells were further incubated at 37° C. for 48 h. After that cells were collected by centrifugation and the medium was removed. Then 100 μL CellTiter-Glo® Luminescent Cell Viability reagent was added into each tube, which was incubated for 10 min with shaking. After that, the reagent was transferred into 96-well plates and cell viability was measured using a microplate reader (SpectraMax 340PC 384, Molecular Devices).
as §1, with “A8 SP cells or SKOV3” for “A8”, “Then drugs” for “Compound”, “different” for “the final”, “were” for “of 5 μM was”, “μL of” for “μL”
A general note: Cellular ATP, detected with luciferase, serves as a proxy for viable cell number.

In experiment [2] the test system is Huh 7 cancer stem cells (CD133+). The experiment can be described thus: Cell viability (CellTiter-Glo) of sorted Huh 7 CD133+ cells. As to conditions: 48 h, different doses. Format: cell-based. Here is the method: (§2) Huh-7 cells were stained with PE-conjugated CD133 antibody (HCC cancer stem cell marker) according to the manufacturer's instructions. Then CD133^+ cells (Huh 7 cancer stem cells) and CD133− cells were sorted by flow cytometry and seeded into 96-well plate with fresh DMEM medium. After 24 h, medium was changed to fresh medium with compound sff-2-112 (“Example 1”) or sff-2-124 (“Example 3”) at different doses. After 48 h, cell viability was analyzed by CellTiter-Glo luminescent agent.

Experiment [3] relates to Huh 7 CD133- cells. The experiment can be described thus: Cell viability (CellTiter-Glo) of sorted Huh 7 CD133- cells. The following applies: 48 h, different doses. Format: cell-based. The procedure: as §2

“Also recorded” adds a separate entry of the source. Where two headings read alike, the source gives them in different places.

As to `CC(C)(C)OC(=O)[C@@H](COCc1ccccc1)ONC(=O)c1cc(C(F)(F)F)cc(C(F)(F)F)c1` [sff-2-132], in experiment [1], the “rank of toxicity among the 14 molecules on HEY A8 CSCs” value is listed as “highest toxicity”; the “cell viability of HEY A8 CSCs (toxicity)” value was “significantly decreased the cell viability”; the “selectivity towards ovarian CSCs over ovarian cancer cells and normal cells” value was “best selectivity; also recorded: selectively induce the death of ovarian CSCs”. In addition, in experiment [1] (Homo sapiens), the concentration for half-maximal inhibition (IC50) (as a rule, the point on the concentration scale where inhibition reaches its midpoint) is 1 ± 0.9 µM. In addition, the “selectivity to CSCs over cancer cells” value in experiment [1] (ovarian CSCs vs adherent cancer cells (and normal cells)) is “up to 60 fold”.
For the molecule `O=C(NO[C@H](COCc1ccccc1)C(=O)Nc1ccccc1)c1cc(C(F)(F)F)cc(C(F)(F)F)c1` [sff-2-112], in experiment [1], the “rank of toxicity among the 14 molecules on HEY A8 CSCs” value is recorded as “highest toxicity”; the half-maximal inhibitory concentration (IC50) worked out at 1.5 ± 1.3 µM; the “cell viability of HEY A8 CSCs (toxicity)” value was “significantly decreased the cell viability”; the “selectivity towards ovarian CSCs over ovarian cancer cells and normal cells” value was “selectively induce the death of ovarian CSCs”. Also, the “death of Huh 7 CD133+ cells” value in experiment [2] is “induce the death”. For the same molecule, the “death of Huh 7 CD133- cells” value in experiment [3] is “induce the death”.

Values taken from patent US12539284B2, “Aminoxy acid-based anti-cancer stem cell compounds and methods thereof” (Westlake University, priority 2019, dated 2026).
